Biological target: T1, CAMKK1 (CAMKKA) (Homo sapiens, UniProt Q8N5S9)
T1 construct: purchased Thermo Fisher Scientific (Life Technologies) SelectScreen
Assay: SelectScreen LanthaScreen
Format: binding
Conditions: read-out: % displacement
Experimental: The in vitro kinase selectivity of NU5455 was determined using the SelectScreen Broad Assay Panel (Thermo Fisher Scientific) involving activity and binding assays (Supplemental Table 1). […] Class IA PI3Ks were measured using the p85α subunit.
Kinase [ATP] % Assay Kinase [ATP] % Assay Kinase [ATP] % Assay Kinase [ATP] % Assay
DNA-PK Km app 98.3 Z LATS2 n/a 4.7 L KIT D820E n/a 1.3 L GSK3B (GSK3 beta) Km app -2.5 Z
PIK3C3 (hVPS34) Km app 85.9 A PRKCZ (PKC zeta) Km app 4.7 Z GRK1 n/a 1.3 L BMPR2 n/a -2.5 L
PIK3C2B (PI3K-C2 beta) 10 28.9 A FGFR1 Km app 4.7 Z BRSK2 n/a 1.2 L CDC42 BPB (MRCKB) Km app -2.5 Z
SNF1LK2 Km app 26.6 Z MINK1 Km app 4.6 Z NUAK1 (ARK5) Km app 1.2 A AMPK (A2/B2/G2) n/a -2.6 L
HCK Km app 18.0 Z CSF1R (FMS) Km app 4.3 Z CDK9/cyclin K n/a 1.0 L PRKG1 Km app -2.7 Z
NEK2 Km app 17.8 Z CSNK1G3 (CK1 gamma 3) Km app 4.2 Z NUAK2 n/a 1.0 L KIT T670E n/a -2.8 L
ALK Km app 17.3 Z STK32C (YANK3) n/a 4.2 L CDK2/cyclin O n/a 0.9 L ERBB4 (HER4) Km app -2.8 Z
FGFR3 K650M n/a 16.5 L STK22D (TSSK1) Km app 4.2 Z CAMKK2 (CaMKK beta) n/a 0.9 L PLK4 n/a -2.8 L
SIK3 n/a 16.1 L TAOK3 (JIK) n/a 4.2 L FGFR3 Km app 0.9 Z GRK7 Km app -3.0 Z
LYN A Km app 15.2 Z RPS6KA4 (MSK2) Km app 4.2 Z ULK2 n/a 0.9 L MAPKAPK2 Km app -3.1 Z
BMPR1B (ALK6) n/a 14.5 L PTK2B (FAK2) Km app 4.2 Z KIT D816V n/a 0.9 L FGFR4 Km app -3.1 Z
INSRR (IRR) Km app 14.1 Z CLK2 Km app 4.1 Z CAMK1 (CaMK1) 10 0.8 A CASK n/a -3.1 L
PLK2 Km app 14.1 Z STK24 (MST3) Km app 4.1 Z PTK6 (Brk) Km app 0.7 Z GRK5 Km app -3.2 Z
PRKACA (PKA) Km app 14.0 Z CAMK1D (CaMKI delta) Km app 4.1 Z CAMK2B (CaMKII beta) Km app 0.7 Z EGFR (ErbB1) T790M Km app -3.3 Z
EIF2AK2 (PKR) n/a 13.3 L INSR Km app 4.1 Z ACVR1 (ALK2) n/a 0.7 L PAK4 Km app -3.3 Z
PRKX Km app 12.5 Z IRAK1 Km app 4.0 A ABL1 H396P n/a 0.6 L DAPK3 (ZIPK) Km app -3.4 Z
FGR Km app 12.1 Z SRC N1 Km app 3.9 Z MERTK (cMER) A708S n/a 0.6 L RET M918T n/a -3.5 L
CLK1 Km app 11.7 Z SRPK2 Km app 3.9 Z MAPKAPK5 (PRAK) Km app 0.6 Z PRKCQ (PKC theta) Km app -3.7 Z
MARK3 Km app 11.4 Z RPS6KA6 (RSK4) Km app 3.8 Z AKT1 (PKB alpha) Km app 0.5 Z CAMKK1 (CAMKKA) n/a -3.8 L
PDGFRB (PDGFR beta) Km app 11.0 Z GRK6 Km app 3.7 Z NTRK3 (TRKC) Km app 0.4 Z FLT3 D835Y Km app -3.9 Z
PRKCN (PKD3) Km app 10.7 Z PKN1 (PRK1) Km app 3.6 Z ZAP70 Km app 0.3 Z ROCK2 Km app -4.1 Z
STK16 (PKL12) n/a 10.5 L MAP3K8 (COT) 100 3.5 Z CSNK1A1 (CK1 alpha 1) Km app 0.3 Z CHUK (IKK alpha) Km app -4.2 A
FES (FPS) Km app 10.4 Z FLT4 (VEGFR3) Km app 3.5 Z MYLK (MLCK) n/a 0.2 L AXL Km app -4.2 Z
ABL1 Km app 10.4 Z GRK4 Km app 3.5 Z MKNK2 (MNK2) n/a 0.2 L PIM2 Km app -4.3 Z
MUSK Km app 10.3 Z FRK (PTK5) Km app 3.4 Z AMPK (A1/B1/G3) n/a 0.2 L PAK1 Km app -4.4 Z
MAPK1 (ERK2) Km app 10.1 Z FYN A n/a 3.3 L MAP3K2 (MEKK2) n/a 0.1 L BMPR1A (ALK3) n/a -4.4 L
BRAF 100 9.9 Z CDK1/cyclin A2 n/a 3.3 L CDK8/cyclin C n/a 0.1 L STK4 (MST1) Km app -4.4 Z
IGF1R Km app 9.7 Z KIT V559D T670I n/a 3.1 L MARK2 Km app 0.1 Z PRKCH (PKC eta) Km app -4.6 Z
MAPK14 (p38 alpha) Km app 9.7 Z SPHK2 10 3.1 A ICK n/a 0.0 L SGKL (SGK3) Km app -4.6 Z
LCK Km app 9.6 Z FGFR3 G697C n/a 3.1 L FGFR2 Km app 0.0 Z PI4KB (PI4K beta) Km app -4.7 A
MAPK11 (p38 beta) Km app 9.5 Z RIPK2 n/a 3.1 L AKT2 (PKB beta) Km app 0.0 Z PRKCE (PKC epsilon) Km app -4.9 Z
SRC Km app 9.5 Z PAK6 Km app 3.0 Z EPHB2 Km app -0.1 Z PHKG1 Km app -5.0 Z
CHEK1 (CHK1) Km app 9.3 Z LYN B Km app 3.0 Z TGFBR2 n/a -0.1 L PDGFRA D842V Km app -5.0 Z
CAMK2D (CaMKII delta) Km app 9.3 Z DAPK2 n/a 2.9 L TEK (Tie2) Km app -0.1 Z PRKG2 (PKG2) Km app -5.1 Z
PLK1 Km app 9.2 Z EPHA4 Km app 2.9 Z AURKA (Aurora A) Km app -0.1 Z TYRO3 (RSE) Km app -5.1 Z
RET Y791F Km app 9.2 Z PIK3CG (p110 gamma) Km app 2.9 A KIT D816H n/a -0.2 L TAOK2 (TAO1) Km app -5.1 Z
FLT3 Km app 9.1 Z HIPK1 (Myak) Km app 2.8 Z KIT N822K n/a -0.2 L EPHB4 Km app -5.3 Z
MAPK10 (JNK3) 100 9.0 Z ADRBK2 (GRK3) Km app 2.8 Z PRKACG (PRKAC gamma) n/a -0.2 L AURKC (Aurora C) Km app -5.4 Z
CSNK2A2 (CK2 alpha 2) Km app 8.7 Z STK17B (DRAK2) n/a 2.7 L TEK (TIE2) Y1108F n/a -0.3 L JAK1 Km app -5.7 Z […]

T1 sequence (Q8N5S9 whole entry): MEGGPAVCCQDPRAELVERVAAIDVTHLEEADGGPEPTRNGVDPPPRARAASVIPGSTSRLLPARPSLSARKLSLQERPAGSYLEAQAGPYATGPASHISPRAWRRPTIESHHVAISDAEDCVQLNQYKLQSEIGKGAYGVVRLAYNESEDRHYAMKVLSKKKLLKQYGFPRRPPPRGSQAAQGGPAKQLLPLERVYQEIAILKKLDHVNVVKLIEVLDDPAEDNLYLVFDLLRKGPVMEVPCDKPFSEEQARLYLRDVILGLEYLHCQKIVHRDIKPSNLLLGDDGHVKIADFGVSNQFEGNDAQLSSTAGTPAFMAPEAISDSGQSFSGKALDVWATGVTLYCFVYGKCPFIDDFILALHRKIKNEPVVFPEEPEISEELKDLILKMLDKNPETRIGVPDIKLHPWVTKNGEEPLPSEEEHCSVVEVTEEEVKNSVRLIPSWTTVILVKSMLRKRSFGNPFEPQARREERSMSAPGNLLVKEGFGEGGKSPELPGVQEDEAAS

Structure (SMILES): CN(C(=O)CN1CCOCC1)c1ccc2sc3c(-c4cccc5c(=O)cc(N6CC7CCC(C6)O7)oc45)cccc3c2c1 [NU5455]
- inhibition at 1 µM: -3.8%

Reference: publication PMC6934184, “Selective DNA-PKcs inhibition extends the therapeutic index of localized radiotherapy and chemotherapy” (The Journal of Clinical Investigation, 2019)
